# Measurements taken from PubChem BioAssay AID732 (Emory University Molecular Libraries Screening Center, 2007).
# Values joined by “and” are separate entries in the source; they are usually repeats but may differ in a detail not shown here. Equal entries are not always repeated. Active and inactive are the calls of the source. No rule for the calls is given here.
# Test system: in vivo angiogenesis, blood vessel count
# Test: reduction of blood vessel formation in vivo – HTS, in vivo study (AID 732);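 also: zebrafish embryos dosed at one day post fertilization; 0% = reference inhibitor and 100% = plate mean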
# Conditions: active compounds read low;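 tested at 30 µM in the well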
row,SMILES,vessel count % control
1,COc1ccccc1N1CCN(CCCNc2c(C)c(=O)n(C)c(=O)n2C)CC1,70.6% (inactive)
2,CN(C)C(=O)Oc1cccc([N+](C)(C)C)c1,87.6% (inactive)
3,COc1ccccc1OCC(O)CN1CCN(CC(=O)Nc2c(C)cccc2C)CC1 (centres undefined),97.9% (inactive)
4,Cn1c(=O)c2[nH]c(-c3ccccc3)nc2n(C)c1=O,117% (inactive)
5,NC1(C(=O)O)CCc2cc(C(=O)O)ccc21 (centres undefined),79.6% (inactive)
6,C[N+](C)(C)CCOC(N)=O,114% (inactive)
7,O=Nc1c(-c2c(O)[nH]c3ccccc23)[nH]c2ccccc12,15.6%
8,CCN(CC)CCCC(C)Nc1ccnc2cc(Cl)ccc12 (centres undefined),108% (inactive)
9,N[C@@]1(C(=O)O)CC[C@@H](C(=O)O)C1,102% (inactive)
10,O=C(O)Cc1c[nH]c2ccc(O)cc12,92.5% (inactive)
11,O=C(O)/C=C/c1cnc[nH]1,108% (inactive)
12,Cc1cccc2c(-c3[nH]c4ccccc4c3N=O)c(O)[nH]c12,25.1%
13,CN(C)CCC(c1ccccc1)c1ccccn1 (centres undefined),109% (inactive)
14,N[C@@H](CC(=O)O)C(=O)O,94.7% (inactive)
15,OC(CN1CCN(c2cccc(Cl)c2)CC1)C(c1ccccc1)c1ccccc1 (centres undefined),67.8% (inactive)
16,C[C@H]1C2Cc3ccc(O)cc3C1(C)CCN2CC1CC1 (some centres undefined),70.9% (inactive)
17,CC(=O)OCC1=C(C(=O)O)N2C(=O)[C@@H](NC(=O)CSc3ccncc3)[C@H]2SC1,97.3% (inactive)
18,C[C@]12CCC(=O)C=C1CC[C@@H]1[C@@H]2[C@@H](O)C[C@@]2(C)[C@H]1CC[C@]2(O)C(=O)COC(=O)CCC(=O)O,98.7% (inactive)
19,CC(NC(C)(C)C)C(=O)c1cccc(Cl)c1 (centres undefined),71.1% (inactive)
20,N.N.N.N.N.N.N.N.N.N.N.N.N.N.O.O.[Cl-].[Cl-].[Cl-].[Cl-].[Cl-].[Cl-].[Ru+4].[Ru+5].[Ru+5],123% (inactive)
21,COCC(=O)O[C@]1(CCN(C)CCCc2nc3ccccc3[nH]2)CCc2cc(F)ccc2[C@@H]1C(C)C,90.9% (inactive)
22,NC(N)=NCCSSCCN=C(N)N,93.7% (inactive)
23,O=C(Nc1cc(C(=O)Nc2ccc(S(=O)(=O)O)cc2S(=O)(=O)O)cc(C(=O)Nc2ccc(S(=O)(=O)O)cc2S(=O)(=O)O)c1)Nc1cc(C(=O)Nc2ccc(S(=O)(=O)O)cc2S(=O)(=O)O)cc(C(=O)Nc2ccc(S(=O)(=O)O)cc2S(=O)(=O)O)c1,118% (inactive)
24,c1cnc(N2CCN(Cc3ccc4c(c3)OCO4)CC2)nc1,106% (inactive)
25,CCSC(N)=Nc1ccc(C(F)(F)F)cc1,87.5% (inactive)

row,SMILES,vessel count % control
1,C[N+](C)(C)CCCCCCCCCC[N+](C)(C)C,100% (inactive)
2,CCCN1CCc2cc(O)cc3c2[C@H]1Cc1ccc(O)c(O)c1-3,114% (inactive)
3,NC(=O)NO,97.8% (inactive)
4,CC[C@H](C)C(=O)O[C@H]1CCC=C2C=C[C@H](C)[C@H](CC[C@@H]3C[C@@H](O)CC(=O)O3)[C@H]21,88.5% (inactive)
5,Cc1o[nH]c(=O)c1CC(N)C(=O)O (centres undefined),104% (inactive)
6,C[C@H]1CC2C3CCC4=CC(=O)C=C[C@]4(C)[C@@]3(Cl)[C@@H](O)C[C@]2(C)[C@@]1(O)C(=O)CO (some centres undefined),120% (inactive)
7,Oc1ccc2c3c1O[C@H]1c4[nH]c5ccccc5c4C[C@@]4(O)C(C2)N(CC2CC2)CCC314 (some centres undefined),115% (inactive)
8,NC(=Nc1ccccc1)NC(=O)c1nc(Cl)c(N)nc1N,104% (inactive)
9,Cc1ccccc1/C=C/C1=NCCN1,102% (inactive)
10,CCN(CC)CCNC(=O)c1ccc(N)cc1,139% (inactive)
11,N#C/C(=C\c1ccc(O)c(O)c1)C(=O)NCCc1ccccc1,115% (inactive)
12,CC(CCc1ccccc1)NC(C)C(O)c1ccc(O)cc1 (centres undefined),98.4% (inactive)
13,N#C/C(=C\c1ccc(O)c(O)c1)C(=O)Nc1ccccc1,104% (inactive)
14,CN=C(N)NCCC[C@H](N)C(=O)O,93% (inactive)
15,NC1CONC1=O (centres undefined),117% (inactive)
16,CNCC(O)c1ccc(O)cc1 (centres undefined),131% (inactive)
17,C[C@]12CCC(=O)C=C1CC[C@@H]1[C@@H]2[C@@H](O)C[C@@]2(C)[C@H]1CC[C@]2(O)C(=O)CO,102% (inactive)
18,CCCNC(C)C(=O)Nc1ccccc1C (centres undefined),108% (inactive)
19,CC[C@@H]1C(=O)OC[C@@H]1Cc1cncn1C,82.3% (inactive) and 90.8% (inactive)
20,C=C(C)[C@H]1Cc2c(ccc3c2O[C@@H]2COc4cc(OC)c(OC)cc4[C@@H]2C3=O)O1,0% (inactive)
21,CNC(=O)OCC[N+](C)(C)C,96.2% (inactive)
22,COC(=O)[C@@H](N)Cc1ccc(O)c(O)c1,99.1% (inactive)
23,CN1CCc2cc(O)c(O)cc2C(c2ccccc2)C1 (centres undefined),107% (inactive)
24,NCCc1ccc(O)cc1,90.2% (inactive)
